Results from patent US6153434A, “Methods for the intracellular delivery of substances” (University of Florida, priority 1999, dated 2000).
Like-named read-outs stand apart in the source and are kept apart here.

Columns and labels:
plasmid DNA = assay: Dissociation of DNA from DNA/liposome complexes by glutathione, agarose gel electrophoresis; type: physicochemical
Description: Dissociation of DNA from DNA/liposome complexes by glutathione: One μg of plasmid DNA was dissolved in 10 (L of phosphate-buffer saline (PBS). Cationic liposomes […] or CHSTAEA/DOPE were added to pDNA solution at the increasing weight ratios of 2/1, respectively. All calculations of the weight of liposomes in this paper were based on the weight of cationic lipids only. After the complexes were incubated for 30 minutes at room temperature, 10 (L of 20 mM of glutathione in PBS (pH=7.3) was added to the mixture to reach a final concentration of glutathione of 10 mM. The mixtures were incubated at 37° C. for 20 hours. Released DNA was visualized by 1% agarose gel electrophoresis.
DNA was complexed with a disulfide cationic liposome CHDTAEA/DOPE or its non-disulfide cationic liposome analog CHSTAEA/DOPE at the cationic lipid to DNA ratio of 2/1. […] In the presence of 10 mM of glutathione, >50% of DNA was released from complexes after the incubation. […] The complexes with the ratios of cationic liposome/DNA from 3/1 to 5/1 were also tested in the release assay with similar same results.

CHO cells [1] = assay: Transfection of pGL3-luciferase plasmid; type: cell-based, Chinese hamster
Description: (§1) FIGS. 5A and 5B show a comparison of the transfection of pGL3-luciferase plasmid by CHDTAEA/DOPE, CHSTAEA/DOPE, and DC-Chol in CHO and SKnSH cells. A fixed dose 2 μg/well of pGL3 DNA was mixed with increasing weight ratios of cationic liposomes (calculation based on cationic lipid) and used for transfection. FIG. 5A: Transfection in CHO cells, FIG. 5B: Transfection in SKnSH cells. .diamond-solid.CHDTAEA/DOPE, .box-solid.CHSTAEA/DOPE; .tangle-solidup.DC-Chol/DOPE. Data is shown as mean (S. D. (n=3).
(§2) Cell culture and gene transfection using CHDTAEA and CHSTAEA: Chinese hamster ovary (CHO) and SKnSH cells were obtained from American Tissue Type Collection (Rockville, Md.). […] DNA/liposome complexes in 100 (L of serum free media were added to each well and incubated for 4.5 hours. After the 4.5-hour transfection time, the transfection media were changed to growth media and cells were incubated for another 24 hours. Luciferase activity was measured using a standard luciferase assay (Thierry, A. R., P. Rabinovich, B. Peng, L. C. Mahan, J. L. Bryant, R. C. Gallo (1997) Gene Ther 4:226-237). Luciferase activity in transfected cells was expressed as RLU per well. All conditions for transfection were strictly kept the same for each different kind of liposomes. Experiments were repeated at least twice, and experiments were done in triplicate within a given series.

SKnSH cells [2] = assay: Transfection of pGL3-luciferase plasmid; type: cell-based
Description: as §1, §2

CHO and SKnSH cells = assay: Cytotoxicity of liposome/DNA complexes, both cell lines (FIG. 6); type: cell-based
Description: FIGS. 6A and 6B show the toxicity assays of cytotoxicity of the liposome/DNA complexes was studied in CHO and SKnSH cells. A fixed dose of 1 μg/well of pDNA was mixed with increasing amount of cationic liposomes and used in the toxicity assay. Cell viability was calculated as percentage of survival cells as stated in the Methods section. FIG. 6A: Toxicity in CHO cells. FIG. 6B: Toxicity in SKnSH cells. .diamond-solid.CHDTAEA/DOPE, .box-solid.CHSTAEA/DOPE; .tangle-solidup.DC-Chol/DOPE. Data is shown as mean (S. D. (n=3).
Toxicity Assay of CHDTAEA, CHSTAEA and DC-Chol: The toxicity of CHDTAEA/DOPE, CHSTAEA/DOPE and DC-Chol/DOPE in the CHO and SKnSH cell line was determined using a CARE-LASS (a calcein release assay). Before the assay, cells were plated in a 96 well plate (1(10^5 cells/well) and grown to 60-80% confluence overnight. To test the toxicity of the DNA/liposome complexes, a fixed amount of DNA (1 μg/well) was used to complex with increasing amount of liposomes. The ratios of DNA to liposome of different treatments were the same as the ratios used in transfection studies. The cytotoxicity of three liposomes were measured and expressed according to our previous procedure (Tang, F., J. A. Hughes (1998) Biochem Biophys Res Commun 242:141-145). Each experiment was performed in triplicate and repeated at least twice.

CHO cells [3] = assay: Luciferase gene transfection (second set of experiments); type: cell-based, Chinese hamster
Description: (§3) When DNA transfection was carried out in serum free media, the DNA/liposome complexes usually incubated with cells for about 4-5 hours. […] Biophys. Acta 1111, 239-246). For gene transfection in growth media containing 10% FBS, the toxicity of complexes may be alleviated, and also the transfection may be inhibited by enzymes or slowed down by negatively charged macromolecules.
Biophys. Acta 1111, 239-246).

293 cells = assay: Luciferase gene transfection; type: cell-based
CHO cells [4] = assay: Transfection efficiency assay (green fluorescence protein, pUF2 DNA); type: cell-based, Chinese hamster; conditions: optimal transfection ratio
Description: Transfection efficiency assay: The optimal weight ratio for transfection of each liposome was used. […] Complexes were incubated with CHO cells in serum free media for 4.5 hour then the media was changed to growth media and further incubated for 20 hours. Transfection efficiency was determined by counting the number of green fluorescence cells compared with all cells in the field of vision under (20 magnification using a Nikon Diaphot inverted microscope). Each transfection was done in triplicate and three separate counts were made for each well.

COS 1 cells = assay: Luciferase gene transfection (second set of experiments)
Description: (§4) In another set of experiments COS 1 and Chinese hamster ovary (CHO) cells were maintained in DMEM (high glucose) and (-MEM) respectively, and supplemented with 10% fetal bovine serum (FBS) and antibiotics (penicillin 100 g/ml and streptomycin 100 μg/ml). All cells were kept in 5% CO2 and at 37° C. in humidified air. Cell lines were cultured and seeded in 24 well plates (2×10^5), and grown to 60-80% confluence in 1 ml of media with serum. DNA/lipid complexes were made and incubated at room temperature in serum free media for 5-10 minutes and used for transfection. Before transfection, growth media containing serum was changed to serum free media and for the experiment to test serum sensitivity, growth media were changed to fresh growth media and the transfection mixtures were added to the cells. After a certain period of time for the specific experiments, the media was changed to growth media containing serum, and the cells were grown for another 48 hours. Following transfection and incubation, cells were rinsed twice with phosphate buffer saline. 100 μL of luciferase lysis buffer (0.1 M potassium phosphate buffer pH 7.8, 2 mM EDTA, 1% Triton X-100, 1 mM DTT) was added to the cells. The cells were lysed with shaking at room temperature for 15 minutes. Luciferase activity was quantified by using a Monolight 2010 Luminometer. 100 µl of luciferase assay buffer (30 mM tricine, 3 mM ATP, 15 mM MgSO4, 10 mM DDT, pH=7.8) and 2 μL of cell lysate were added to a 100 l injection of 1 mM D-luciferin, pH=6.3 (Molecular Probes). The light emission over a 10 second reaction period was integrated. […] 2 l of cells lysate was used for luciferase assay. The total protein concentration in the supernatant was measured by the BCA protein assay reagent (Pierce, Rockford, Ill.). Luciferase activity in cultured cells was expressed as RLU per mg of protein. Each experiment was repeated at least twice, and within in a series, experiments were done in triplicate.
(§5) Comparison experiments were done by using a fixed amount of DNA (3 g/well). Transfection activity of six ratios of cationic lipid to DNA: 1/1, 2/1, 3/1, 4/1, 8/1, and 10/1 (w/w) were tested in COS 1 cells and CHO cells. […] Since serum was reported to decrease the transfection activity of some cationic liposomes, transfection was studied both in serum free media and growth media containing 10% of FBS.

[5] = test system: COS 1 cells and CHO cells; assay: Luciferase gene transfection (second set of experiments), COS 1 and CHO; type: cell-based; conditions: serum free media
Description: as §4, §5

SKnSH cells [6] = assay: Luciferase gene transfection; type: cell-based
COS-1 cells = assay: Luciferase gene transfection; type: cell-based
[7] = Aggregation of transfection complexes during transfection; type: physicochemical
Description: The lack of physical stability of liposome/DNA complexes affects the gene transfection activity (Caplen, N. J., E. Kinrade, F. Sorgi, X Gao, D. Gruenert, C. Couttelle, L. Huang, E. W . F. W. Alton, R. Williamson (1995) Gene Ther. 2:603). […] The interaction force between primary amino groups and DNA is not as strong as the interaction force of a quaternary amino group with DNA and is dependent on the local environment.
as §3

[8] = CHO cells, growth media containing 10% FBS
[9] = CHO, serum free, optimal ratio of each liposome
[10] = weight ratio 10/1 (charge ratio 6/1(+/-))

CC(C)CCC[C@@H](C)[C@H]1CC[C@H]2[C@@H]3CC=C4C[C@@H](OC(=O)CSSCC(=O)NCCN(CCN)CCN)CC[C@]4(C)[C@H]3CC[C@]12C [CHDTAEA, Cholesteryl hemidithiodiglycolyl tris(aminoethyl)amine]
release of complexed DNA (plasmid DNA; presence of glutathione): released more than half of complexed DNA | transfection activity vs non-disulfide analog CHSTAEA (CHO cells [1]): greater transfection activity than its non-disulfide analog CHSTAEA | transfection activity vs non-disulfide analog CHSTAEA (SKnSH cells [2]): greater transfection activity than its non-disulfide analog CHSTAEA

CC(C)CCC[C@@H](C)[C@H]1CC[C@H]2[C@@H]3CC=C4C[C@@H](OC(=O)CCC(=O)NCCN(CCN)CCN)CC[C@]4(C)[C@H]3CC[C@]12C [CHSTAEA, Cholesteryl hemisuccinyl tris(aminoethyl)amine]
release of DNA from complexes (plasmid DNA; in both reductive and non-reductive environments, 20 hours): did not release DNA at any conditions after incubation for 20 hours | cytotoxicity vs CHDTAEA (CHO and SKnSH cells): much greater cytotoxicity

CC(C)CCC[C@@H](C)[C@H]1CC[C@H]2[C@@H]3CC=C4C[C@@H](OC(=O)NCCN(C)C)CC[C@]4(C)[C@H]3CC[C@]12C [DC-Chol, Cholesteryl N-(dimethylaminoethyl)carbamate, reference compound]
cytotoxicity vs CHDTAEA (CHO and SKnSH cells; FIG. 6): much greater cytotoxicity

CCCCCCCC/C=C\CCCCCCCC(=O)OC[C@H](COC(=O)CCC(=O)OCCSSCCOC(=O)C(N)CCCN)OC(=O)CCCCCCC/C=C\CCCCCCCC (some centres unmarked) [DOGSDSO, 1',2'-dioleoyl-sn-glycero-3'-succinyl-2-hydroxyethyl disulfide ornithine conjugate]
gene expression on further increase of DNA to 7 μg (CHO cells [3]; CHO): decrease of gene expression (p<0.0232) | gene expression, 5 μg vs 6 μg of DNA (CHO cells [3]; CHO): no significant difference of gene expression between the treatments of 5 μg of DNA and 6 μg of DNA (p>0.6528) | luciferase gene expression, 5 μg of DNA, vs 7 μg of DNA by DOGSHDO (CHO cells [3]; CHO): 14 times higher | transfection time of highest transfection activity (CHO cells [3]; [8]): 12 h | luciferase gene expression (CHO cells [3]; CHO, 5 μg of DNA): 9.03E+08 | optimal transfection activity, times higher than DOTAP or DOGSHDO (CHO cells [3]; CHO, growth media with serum): 3 times | transfection efficiency vs DOGSHDO (CHO cells [3]; CHO, lipid/DNA 10/1): higher transfection efficiency | transfection activity, times higher than DOGSHDO (CHO cells [3]; [9]): 3 times | transfection activity, times higher than DOTAP (CHO cells [3]; [9]): 2 times | amount of DNA at saturation of system (CHO cells [3]; CHO, transferred by 50 μg of DOGSDSO): 5 µg | effect on transfection activity compared to DOGSHDO (293 cells): greater than 50 fold | transgene expression efficiency (green fluorescence protein) (CHO cells [4]): 20-25% | transfection activity in the presence of serum (COS 1 cells; 10% FBS, COS-1 cells): equally active in the presence of 10% FBS | luciferase gene expression, 2 g of pDNA, vs 7 g of pDNA with DOGSHDO (COS 1 cells; COS 1): 3 time higher | luciferase gene expression (COS 1 cells; COS 1, 2 g of pDNA): 1.18E+09 | transfection activity in growth media vs serum free media (COS 1 cells; COS 1, 12 hours): comparable to transfection activity in serum free media | transfection activity (luciferase) (COS 1 cells; COS 1, growth media (10% FBS), 12 hours): 5.9×10^8 RLU/mg protein | highest transfection activity, times higher than DOGSHDO (COS 1 cells; COS 1, growth media with serum): 3 times | highest transfection activity, times higher than DOTAP (COS 1 cells; COS 1, growth media with serum): 2 times | amount of DNA at saturation of system (COS 1 cells; COS 1, lipid/DNA 10/1): 2 g | transgene expression on increase of DNA from 2 g to 7 g (COS 1 cells; COS 1, lipid/DNA 10/1): no significant increase of transgene expression (p>0.2319) | transfection activity, times higher than DOGSHDO (COS 1 cells; COS 1, serum free, optimal ratio of each liposome): 11 times | transfection activity, times higher than DOTAP (COS 1 cells; COS 1, serum free, optimal ratio, DOTAP at 1:1): 6 times | amount of DNA at saturation of system (COS 1 cells; COS-1 cells, optimal DNA/liposome ratio): 2e-06 g | expression of luciferase at lipid/DNA ratios 1/1, 2/1, 3/1, 4/1 (w/w) (COS 1 cells; growth media with serum): not statistically different (p>0.2782) | effect of further increase of liposome amount above 10/1 [5]: caused cytotoxicity and decreased the transfection activity | optimal weight ratio of cationic lipid to DNA in transfection [5]: 10/1 | increase in transfection activity compared to DOGSHDO (SKnSH cells [6]): 4 fold | effect on transfection activity compared to DOGSHDO (COS-1 cells): greater than 50 fold | aggregation of transfection complexes [7, 10]: did not aggregate during transfection

CCCCCCCC/C=C\CCCCCCCC(=O)OCC(COC(=O)CCC(=O)OCCCCCCOC(=O)[C@@H](N)CCCN)OC(=O)CCCCCCC/C=C\CCCCCCCC (some centres unmarked) [DOGSHDO, 1',2'-dioleyl-sn-glycero-3'-succinyl-1,6-hexanediol ornithine conjugate]
gene expression with increasing amount of DNA/liposome (CHO cells [3]; CHO): gene expression kept increasing | transfection time of highest transfection activity (CHO cells [3]; [8]): 12 h | luciferase gene expression (CHO cells [3]; CHO, 7 μg of DNA): 6.5E+07 | transgene expression efficiency (green fluorescence protein) (CHO cells [4]): 6-7% | saturation of system (COS 1 cells; 7 μg of DNA, COS-1 cells): did not reach the saturation | luciferase gene expression (COS 1 cells; COS 1, 7 g of pDNA): 3.84E+08 | transgene expression with increasing complexes (COS 1 cells; COS 1, lipid/DNA 10/1): increased with the increase of DNA/DOGSHDO complexes (p<0.0071) for the system did not reach saturation | luciferase expression, 7 μg of DNA, vs 2 μg of DNA by DOGSDSO (COS 1 cells; COS-1 cells): only one third of that of 2 μg of DNA transferred by DOGSDSO liposome | effect of further increase of liposome amount above 10/1 [5]: caused cytotoxicity and decreased the transfection activity | optimal weight ratio of cationic lipid to DNA in transfection [5]: 10/1 | aggregation of transfection complexes [7, 10]: did not aggregate during transfection

CCCCCCCC/C=C\CCCCCCCC(=O)OCC(C[N+](C)(C)C)OC(=O)CCCCCCC/C=C\CCCCCCCC (centres unmarked) [DOTAP, 1,2-dioleoyl-3-trimethylammonium-propane, reference compound]
transfection activity from 2 hours to 48 hours transfection time (CHO cells [3]; [8]): not statistically different from 2 hours to 48 hours transfection time (p>0.1220) | transgene expression efficiency (green fluorescence protein) (CHO cells [4]): 5-6% | aggregation of transfection complexes ([7]; weight ratios of DOTAP to DNA bigger than 2:1): form large aggregates
